One assay concerns H1 ES cells. Kind of assay: Media component test: survival and proliferation of dissociated ES cells. It is filed as cell-based, human. The settings on record: for requirement for short-term survival (24 hours) and proliferation (82 hours) of human ES cells: factor removed from TeSR, FIG. 6A; for initial survival of human ES cells: added to defined medium, FIG. 6F; for cell survival and proliferation: FIG. 4A-B. On the procedure: (§1) (A) Dissociated H1 ES cells were plated into different media (Table 1) on […]-coated plates, and cell survival was measured 24 hours after plating. […] (B) The same ES cells from FIG. […] (C) Dissociated cells were plated in three different media, and initial survival was measured 22 hours after plating (blue column) Proliferation was measured 129 hours after plating (red column) The three media were TESR™, TESR without L-ascorbic acid (TESR-LAA) and a simplified medium containing DMEM/F 12, NaHCO3 LAA, insulin and FGF2 (*p<0.05, n=3). (D) H1 cells were maintained in defined media (DMEM/F12, NaHCO3, Insulin, FGF2 and LAA) for multiple passages with or without selenium. 150,000 starting cells were seeded in each passage on day 0, 4 and 7. (E) Human H1 cells were grown in DMEM/F12, NaHCO3, Insulin, FGF2, LAA and selenium with or without NODAL for four passages, and OCT4 expression was analyzed by FACS. Green peak: anti-OCT4 primary antibody with Alexa-488 secondary antibody; unshaded peak: mouse IgG control. (F) Transferrin was tested with cloning assay in defined media (DMEM/F12, NaHCO3, Insulin, FGF2, LAA, and Selenium); human foreskin iPS cells (Yu et al., Science 318:1917-1920 (2007)) were used in this particular experiment with ROCK inhibitor HA100 (10 μM) in hypoxic conditions (*p<0.05, n=3). […] (G) E8 medium (Table 1), TESR™ and conditioned medium (CM) were tested by cloning assay with HA100 (*p<0.05, n=3). Hypoxia conditions (5% O2 and 10% CO2, red column) and normoxic conditions (5% CO2, blue column) were used in the test (*p<0.05, n=3). […] (H) E8 medium and TESR™ were used to culture ES and iPS cells for long-term expansion, and the proliferation dynamics was recorded in the first seven passages. 200,000 H1 and human foreskin iPS cells (Yu et al., Science 324:797-801 (2009)) were plated in each passage in E8 and TESR™ media in hypoxic conditions.
H1 cells were maintained in specific media for 5 days (2 passages), and RNA was purified for qRT-PCR to detect NANOG expression relative to GAPDH. […] A variety of basic media were used to make growth media with additional components (insulin, FGF2, LAA, Selenium, and NaHCO3). Dissociated H1 cells were plated in different media on […]-coated plates. […] Green peak: OCT4 antibody with Alexa-488 conjugated secondary antibody; Grey peak: mouse IgG control. […] Cells were treated with HA100 (10 μM) and Y27632) (10 μM) for 24 hours, and with blebbistatin (10 μM) for 4 hours (*p<0.05, n=3).

The subject of a further assay is H1 cells. Kind of assay: Cloning assay. It is filed as cell-based, human. On the procedure:
To determine how the various vitronectin variants affect cloning efficiency, the vitronectin polypeptide variants were tested in a cloning assay, essentially as described by Chen et al, Cell Stem Cell 7:240-248 (2010), incorporated herein by reference as if set forth in its entirety. Briefly, triplicates for each substrate were prepared in a 12-well plate. Prior to the addition of cells, 500 μL medium was added to each well. Cells were detached from their culture plate and dissociated with TrypLE for 5 minutes or until fully detached. TrypLE was neutralized with equal volumes of basic media, and the cells were counted, washed and then diluted to 5000 cells/mL. 100 μL of this cell suspension (500 cells) was added to each well. Plates were then incubated at 37° C., 5% O2 and 10% CO2 and the medium was changed every 1-2 day(s). After 5-6 days, colonies were stained with an APS kit (Vector Lab) following the manufacturer's instruction and counted.

A further assay relates to human ES and iPS cells. Kind of assay: Long-term expansion of ES and iPS cells in defined medium. To be noted: for long-term culture stability of human ES and iPS cells: NODAL 100 ng/ml or TGFβ 2 ng/ml added to simple medium. It is filed as cell-based. On the procedure: as §1, with “FIG. 5A were cultured in the same media with daily media change, and proliferation was measured 96 hours after plating.” for “FIG.”

The test system of assay [1] is NANOG expression in H1 cells. Kind of assay: NANOG expression by qRT-PCR relative to GAPDH. It is filed as cell-based, human. The settings on record: NODAL 100 ng/ml or TGFβ 2 ng/ml in defined media; FIG. 6B. How it is done: FIG. 6 illustrates media components supporting human pluripotent stem cells. […] When those factors were removed, H1 ES cells survived (24 hours, blue columns) and proliferated (82 hours, red columns) as well as in TeSR. […] H1 cells were maintained in specific media for 5 days (2 passages), and RNA was purified for qRT-PCR to detect NANOG expression relative to GAPDH. (C) DMEM/F12 basic media is among the best basic media in the screen that supports human ES cell survival and proliferation. A variety of basic media were used to make growth media with additional components (insulin, FGF2, LAA, Selenium, and NaHCO3). Dissociated H1 cells were plated in different media on MATRIGEL-coated plates. Cell survival was measured at 24 hours (blue column) and cell proliferation at 52 hours (red column) (D) Defined media (DMEM/F12, insulin, FGF2, LAA, and Selenium) with NODAL supports pluripotency of human iPS cells. Flow cytometry detected high expression of pluripotency marker OCT4 in two iPS cell lines. Green peak: OCT4 antibody with Alexa-488 conjugated secondary antibody; Grey peak: mouse IgG control. Similar results were also obtained from H1 and H9 ES cells maintained in the same media. (E) Normal karyotypes were maintained after long-term passage for those iPS cells shown above. […] High OCT4 expression was detected in H1 and iPS cells. […]

Another assay relates to human foreskin iPS cells. Kind of assay: Cloning assay in defined media with transferrin. Type of assay: cell-based. The settings on record: defined media with HA100 (10 μM), hypoxic conditions; FIG. 4F. On the procedure:
FIG. 4 presents media components supporting human ES cell survival and proliferation. (A) Dissociated H1 ES cells were plated into different media (Table 1) on MATRIGEL-coated plates, and cell survival was measured 24 hours after plating. […] (B) The same ES cells from FIG. 5A were cultured in the same media with daily media change, and proliferation was measured 96 hours after plating. […] (C) Dissociated cells were plated in three different media, and initial survival was measured 22 hours after plating (blue column) Proliferation was measured 129 hours after plating (red column) The three media were […] without L-ascorbic acid (TESR-LAA) and a simplified medium containing DMEM/F 12, NaHCO3 LAA, insulin and FGF2 (*p<0.05, n=3). (D) H1 cells were maintained in defined media (DMEM/F12, NaHCO3, Insulin, FGF2 and LAA) for multiple passages with or without selenium. 150,000 starting cells were seeded in each passage on day 0, 4 and 7. (E) Human H1 cells were grown in DMEM/F12, NaHCO3, Insulin, FGF2, LAA and selenium with or without NODAL for four passages, and OCT4 expression was analyzed by FACS. Green peak: anti-OCT4 primary antibody with Alexa-488 secondary antibody; unshaded peak: mouse IgG control. […] (H) E8 medium and […] were used to culture ES and iPS cells for long-term expansion, and the proliferation dynamics was recorded in the first seven passages. […]

Setting [2] is: added to defined medium, FIG. 6G.
Setting [3] is: TESR components in absence of BSA and BME.

`NCCCC(=O)O` [GABA]: the “requirement for short-term survival (24 hours) and proliferation (82 hours) of human ES cells” value (“requirement for short-term survival” for short) in the assay with H1 ES cells was “not required for short-term survival and proliferation”. For `O=S(=O)(c1cccc2cnccc12)N1CCNCC1` [HA100, reference compound], the cloning efficiency result in the assay with H1 cells (E8 media, 10 μM for 24 hours, p<0.05, n=3) was “improved cloning efficiency as efficiently as Y27632 and blebbistatin”; in the assay on H1 cells (setting [2]), “supported a high cloning efficiency”. For the same molecule, in the assay with H1 ES cells (10 μM, TeSR, p<0.05, n=3), the “cell survival after dissociation” value is “improved cell survival after dissociation”. In addition, in the assay on H1 ES cells, the “initial survival of human ES cells” value was “improved initial survival”.

Regarding `O=C1O[C@H]([C@@H](O)CO)C(O)=C1O` [L-ascorbic acid], the ES cell proliferation entry in the assay on H1 ES cells (TESR components in absence of BSA and BME, FIG. 4C) is on record as “promoted ES cell proliferation”.

With `[Cl-].[Li+]` [LiCl], the “requirement for short-term survival” value in the assay with H1 ES cells was “not required for short-term survival and proliferation”. The same measure, in the same setting: the result for `O=C(O)C1CCCCN1` (stereo not drawn) [Pipecolic acid] reads “not required for short-term survival and proliferation”. On to `C[C@@H](N)[C@H]1CC[C@H](C(=O)Nc2ccncc2)CC1` [Y27632, reference compound], for which, in the assay on H1 cells (setting [2]), the cloning efficiency result is listed as “supported a high cloning efficiency”. In the assay on H1 ES cells, the “initial survival of human ES cells” value was “improved initial survival”. As to `Cc1ccc2c(c1)C(=O)C1(O)CCN(c3ccccc3)C1=N2` (stereo not drawn) [blebbistatin, reference compound], the cloning efficiency entry in the assay with H1 cells (setting [2]) is reported as “supported a high cloning efficiency”. Also, the “initial survival of human ES cells” value in the assay on H1 ES cells is reported as “improved initial survival”. Take `[Se]` [selenium]: the long-term sustained growth result with human ES and iPS cells (defined media, multiple passages, FIG. 4D) is on record as “necessary for long-term sustained growth”. For FGF2: growth factor medium component, the “cell survival and proliferation” value in the assay with H1 ES cells (setting [3]) is “remained important for cell survival and proliferation”. The same measure, in the same setting: with Insulin: medium component the entry was “remained important for cell survival and proliferation”. For the molecule TGFβ, the NANOG expression levels entry in assay [1] is listed as “increased NANOG expression levels”. In addition, in the assay on human ES and iPS cells, the “long-term culture stability of human ES and iPS cells” value is recorded as “consistent long-term culture stability”. In addition, the “requirement for short-term survival” value with H1 ES cells was “not required for short-term survival and proliferation”. Consider “transferrin: protein medium component of E8”, for which the “cloning efficiency on addition of transferrin” value in the assay on human foreskin iPS cells is given as “further increased”.

B1: NODAL: growth factor medium component, 100 ng/mL, interchangeable with TGFβ in E8 media (protein, UniProt Q96S42 238-347, looked up)
Nodal homolog: HHLPDRSQLCRKVKFQVDFNLIGWGSWIIYPKQYNAYRCEGECPNPVGEEFHPTNHAYIQSLLKRYQPHRVPSTCCAPVKTKPLSMLYVDNGRVLLDHHKDMIVEECGCL
For the molecule B1, in assay [1], the NANOG expression levels entry is “increased NANOG expression levels”. For the same molecule, the “long-term culture stability of human ES and iPS cells” value in the assay on human ES and iPS cells is on record as “consistent long-term culture stability”.

The values are drawn from patent publication US9133266B2, “Vitronectin-derived cell culture substrate and uses thereof” (Wisconsin Alumni Research Foundation, priority 2011, dated 2015).
